Data taken from ChEMBL document CHEMBL3992498, “Novel biguanide-based derivatives scouted as TAAR1 agonists: Synthesis, biological evaluation, ADME prediction and molecular docking studies” (Eur J Med Chem, 2017).
The source made the active and inactive calls. No cut-off for these calls is given here.

Key:
[1] = target: Trace amine-associated receptor 1 (Mus musculus) (UniProt Q923Y8); assay: Agonist activity at mouse TAAR1 expressed in HEK293 cells assessed as cAMP accumulation at 10 uM after 20 mins by BRET assay relative to beta-PEA; format: functional, cell-based
[2] = target: T1, Trace amine-associated receptor 1 (Homo sapiens) (UniProt Q96RJ0); assay: Agonist activity at human TAAR1 expressed in HEK293 cells assessed as cAMP accumulation at 10 uM after 20 mins by BRET assay relative to beta-PEA; format: functional, cell-based
T1 sequence (whole entry): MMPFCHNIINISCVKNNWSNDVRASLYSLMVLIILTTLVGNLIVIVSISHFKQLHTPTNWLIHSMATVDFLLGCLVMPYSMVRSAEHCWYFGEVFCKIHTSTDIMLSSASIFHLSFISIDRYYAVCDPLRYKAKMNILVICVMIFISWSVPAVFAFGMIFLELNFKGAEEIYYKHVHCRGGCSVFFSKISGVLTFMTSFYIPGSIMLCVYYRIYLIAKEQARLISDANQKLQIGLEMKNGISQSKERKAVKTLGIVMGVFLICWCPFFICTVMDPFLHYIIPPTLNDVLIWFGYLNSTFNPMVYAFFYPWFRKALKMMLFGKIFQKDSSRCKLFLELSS

[3] = target: T2, Trace amine-associated receptor 5 (Mus musculus, UniProt Q5QD14); assay: Agonist activity at mouse TAAR5 expressed in HEK293 cells assessed as cAMP accumulation after 20 mins by BRET assay; format: functional, cell-based
T2 sequence (Q5QD14 whole entry): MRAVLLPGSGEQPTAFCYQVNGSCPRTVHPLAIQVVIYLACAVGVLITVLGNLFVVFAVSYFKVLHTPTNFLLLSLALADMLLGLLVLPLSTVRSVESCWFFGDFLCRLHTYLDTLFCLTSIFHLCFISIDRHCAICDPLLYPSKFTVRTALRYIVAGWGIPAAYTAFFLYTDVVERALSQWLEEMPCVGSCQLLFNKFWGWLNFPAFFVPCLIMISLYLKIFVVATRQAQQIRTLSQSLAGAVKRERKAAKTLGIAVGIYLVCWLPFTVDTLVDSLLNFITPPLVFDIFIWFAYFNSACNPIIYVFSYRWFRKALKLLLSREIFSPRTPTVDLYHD

[4] = target: Trace amine-associated receptor 1 (Mus musculus, UniProt Q923Y8); assay: Agonist activity at mouse TAAR1 expressed in HEK293 cells assessed as cAMP accumulation after 20 mins by BRET assay; format: functional, cell-based
[5] = target: T3, Trace amine-associated receptor 1 (Homo sapiens, UniProt Q96RJ0); assay: Agonist activity at human TAAR1 expressed in HEK293 cells assessed as cAMP accumulation after 20 mins by BRET assay; format: functional, cell-based
T3 sequence (Q96RJ0 whole entry): T1 sequence (whole entry)

[6] = Selectivity ratio of EC50 for human TAAR1 expressed in HEK293 cells to EC50 for mouse TAAR1 expressed in HEK293 cells; format: cell-based
[7] = target: T3, Trace amine-associated receptor 1; assay: […] of full length recombinant human N-terminal HA-tagged/C-terminal FLAG-tagged TAAR1 expressed in CHOK1 cells assessed as increase in cAMP accumulation by AlphaScreen assay; format: functional, cell-based

Trace amine-associated receptor 1 (Mus musculus), sequence (Q923Y8 whole entry): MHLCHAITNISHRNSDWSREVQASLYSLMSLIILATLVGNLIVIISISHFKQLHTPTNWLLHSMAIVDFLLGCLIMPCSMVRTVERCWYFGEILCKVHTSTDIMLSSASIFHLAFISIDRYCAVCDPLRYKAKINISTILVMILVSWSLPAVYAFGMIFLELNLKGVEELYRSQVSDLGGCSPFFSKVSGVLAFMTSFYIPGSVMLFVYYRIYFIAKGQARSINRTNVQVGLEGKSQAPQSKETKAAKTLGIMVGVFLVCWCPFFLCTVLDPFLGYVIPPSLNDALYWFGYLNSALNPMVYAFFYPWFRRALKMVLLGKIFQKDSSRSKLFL
Trace amine-associated receptor 1 (Mus musculus, UniProt Q923Y8), sequence (Q923Y8 whole entry): as above

| Structure (SMILES) | Activity [1] | Activity [2] | EC50 [3] | Emax [1] | EC50 [4] | Emax [2] | EC50 [5] | Ratio EC50 [6] | EC50 [7] |
| --- | --- | --- | --- | --- | --- | --- | --- | --- | --- |
| N=C(N)NC(=N)Nc1ccccc1 [PHENYL BIGUANIDE] | inactive | inactive | > 10 µM |  |  |  |  |  |  |
| CCc1nc(N)nc(N)c1-c1ccc(Cl)cc1 [PYRIMETHAMINE] | inactive | inactive | > 10 µM |  |  |  |  |  |  |
| NC(N)=N/C(N)=N/C1CCCC1 | inactive | inactive | > 10 µM |  |  |  |  |  |  |
| NC(N)=N/C(N)=N/Cc1cccc(Cl)c1 |  |  | > 10 µM | > 85% | 97 nM | > 85% | 7 µM | 72.2 |  |
| NC(N)=N/C(N)=N/c1cccc(F)c1 | inactive | inactive | > 10 µM |  |  |  |  |  |  |
| COc1ccc(/N=C(\N)N=C(N)N)cc1 | inactive | inactive | > 10 µM |  |  |  |  |  |  |
| COc1ccc(C/N=C(\N)N=C(N)N)cc1OC | inactive | inactive | > 10 µM |  |  |  |  |  |  |
| COc1ccc(CNC(=N)NC(=N)N)cc1 | inactive | inactive | > 10 µM |  |  |  |  |  |  |
| NC(N)=N/C(N)=N/Cc1cccc(Br)c1 |  |  | > 10 µM | > 85% | 1800 nM | > 85% | 4.9 µM | 2.72 |  |
| N=C(N)NC(=N)Nc1ccc(Cl)c(Cl)c1 | inactive | inactive | > 10 µM |  |  |  |  |  |  |
| COc1cc(Cc2cnc(N)nc2N)cc(OC)c1OC [TRIMETHOPRIM] | inactive | inactive | > 10 µM |  |  |  |  |  |  |
| Cc1ccc(NC(=N)N=C(N)N)cc1 |  |  | > 10 µM | > 85% | 1700 nM | > 85% | > 10 µM | > 5.88 |  |
| [H]/N=C(\N/C(=N/[H])Nc1ccc(Cl)cc1)NC(C)C [PROGUANIL] |  |  | > 10 µM |  | 5400 nM |  | > 10 µM |  |  |
| NC(N)=N/C(N)=N/c1ccc([N+](=O)[O-])cc1 | inactive | inactive | > 10 µM |  |  |  |  |  |  |
| NCCc1ccc(Oc2ccc(O)cc2)c(I)c1 |  |  |  |  |  |  |  |  | 1690 nM |
| N=C(N)NC(=N)Nc1ccc(Cl)cc1 [4-CHLOROPHENYLBIGUANIDE] |  |  | > 10 µM | > 85% | 2100 nM | > 85% | > 10 µM | > 4.76 |  |
| NC1=NC2(CCCCC2)N(c2ccc(Cl)cc2)C(N)=N1 | inactive | inactive | > 10 µM |  |  |  |  |  |  |
| N=C(N)/N=C(\N)N1CCOCC1 [MOROXYDINE] |  |  | > 10 µM |  |  |  |  |  |  |
| NC(N)=N/C(N)=N/Cc1ccc(Cl)c(Cl)c1 |  |  | > 10 µM | > 85% | 36 nM | > 85% | 1.2 µM | 33.3 |  |
| NC(N)=N/C(N)=N/Cc1cccc(F)c1 |  |  | > 10 µM | > 85% | 540 nM | > 85% | 1.6 µM | 2.96 |  |
| N=C(N)NC(=N)Nc1cccc(Cl)c1 | inactive | inactive | > 10 µM |  |  |  |  |  |  |
| NC(N)=N/C(N)=N/Cc1ccc(Cl)cc1 |  |  | > 10 µM | > 85% | 780 nM | > 85% | 1.8 µM | 2.31 |  |
| CC(C)NC(=N)NC(=N)Nc1ccc(Cl)cc1 |  |  |  | > 85% |  | > 85% |  | > 1.85 |  |
| CC1(C)N=C(N)N=C(N)N1c1ccc(Cl)cc1 [CYCLOGUANIL] | inactive | inactive | > 10 µM |  |  |  |  |  |  |
| N=C(N)NC(=N)N1CCOCC1 | inactive | inactive |  |  |  |  |  |  |  |
| N=C(N)NC(=N)Nc1ccccc1Cl |  |  | > 10 µM | > 85% | 410 nM | > 85% | 1 µM | 2.44 |  |
| N=C(N)NC(=N)NC12CC3CC(CC(C3)C1)C2 | inactive | inactive | > 10 µM |  |  |  |  |  |  |
| NC(N)=N/C(N)=N/C1CCCCCC1 | inactive | inactive | > 10 µM |  |  |  |  |  |  |
| N=C(N)NC(=N)NCc1ccccc1 |  |  | > 10 µM | > 85% | 780 nM | > 85% | > 10 µM | > 12.8 |  |
| NC(N)=N/C(N)=N/Cc1ccccc1Cl |  |  | > 10 µM | > 85% | 410 nM | > 85% | 3 µM | 7.31 |  |
